In one assay the target is T1, Aurora A (Homo sapiens, UniProt O14965).
T1 construct: GST-tAurora A (123-401aa) fusion protein obtained above; made in house; host or cells: Sf9 insect cells (baculovirus, pBacPAK8)
T1 sequence (O14965 123-401): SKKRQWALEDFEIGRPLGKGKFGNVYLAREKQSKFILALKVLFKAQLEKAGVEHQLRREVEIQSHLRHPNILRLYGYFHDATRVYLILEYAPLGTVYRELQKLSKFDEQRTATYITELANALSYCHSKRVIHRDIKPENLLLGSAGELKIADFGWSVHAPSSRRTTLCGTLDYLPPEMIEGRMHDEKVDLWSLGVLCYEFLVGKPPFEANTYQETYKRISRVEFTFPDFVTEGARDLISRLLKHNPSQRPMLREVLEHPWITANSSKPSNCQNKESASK
Nature of the assay: Aurora Kinase A luminescent kinase assay (Kinase-Glo). The note with it: IC50 values (concentration of a test compound at which activity of 50% of Aurora A is inhibited), GST-tAurora A (123-401aa) fusion protein. The format is biochemical. The procedure: The Aurora A catalytic domain with an N-terminal GST tag was constructed in pBacPAK8 plasmid and expressed in sf9 cells. […] To concentrate GST-tAurora A, buffer was replaced with Tris buffer (100 mM Tris (pH 7.5), 300 mM NaCl, 1 mM EDTA, 4 mM DTT) using Amicon ultra-15 (MWCO:30K, Millipore) to 2.4 mg/ml. After the addition of equal volume of glycerol and 0.04% Triton X-100, the proteins were stored aliquoted at −80° C.
Briefly, a test compound, enzyme, substrate-tetra(LRRWSLG), DTT and ATP were dissolved in Aur buffer (50 mM Tris-HCl pH 7.4, 10 mM NaCl, 10 mM MgCl2, and 100 μg/ml BSA) individually before the assay. […] 5 μM ATP (5 μl), 1 mM DTT (5 μl) and 0.1 mM tetra(LRRWSLG) peptide substrate (5 μl) were added into the reactions of test compounds and GST-tAurora A. The reactions were incubated at 37° C. for 90 min. 50 μl of Kinase-Glo Plus Reagent (V3771, Promega) was added into the reactions, followed by the incubation at 25° C. for 20 min.
A general note: In Kinase-Glo more light means more ATP remaining.

The next assay concerns HCT-116 cells. Nature of the assay: HCT-116 cell viability, MTS assay. The format is cell-based. The note with it: Homo sapiens, HCT-116, 96 h, 96-h incubation, MTS; read-out: IC50 values, HCT-116 cell viability. The procedure:
HCT-116 cell viability was examined by the MTS assay (Promega, Madison, Wis., USA). 2000 HCT-116 cells in 100 μL McCoy's 5a medium were seeded in each well of a 96-well plate. After 96-h incubation with a test compound, the cells were incubated with 20 μL of a MTS/PMS mixture (MTS/PMS ratio: 20:1) for 2 h at 37° C. in a humidified incubator with 5% CO2 to allow viable cells to convert the tetrazolium salt (MTS) into formazan. The amount/concentration of formazan, which indicates the number of live cells, was determined by measuring the absorbance at 490 nm using a PerkinElmer Victor2 plate reader (PerkinElmer, Shelton, Conn., USA).
A general note: Tetrazolium dyes change colour on reduction, which living cells bring about.

Assay [1] deals with HCT-116 colon tumor xenograft. Nature of the assay: In vivo anticancer efficacy in colon tumor xenograft mice (injected with HCT-116). Details: species or system nude mice. The note with it: for tumor growth suppression (in words): versus VX-680 at 50 mg/kg. The procedure: In vivo anticancer efficacy of the compounds of this invention was assessed using colon tumor xenograft mice (injected with HCT-116), as described in Cancer Research 2004, 64, 4621-4628.
(§1) HCT-116 cells were injected via s.c. in nude mice to form colon tumor xenograft mice. Mice bearing tumors with a size of ˜100 mm^3 were randomly assigned to three groups: a vehicle control group (10 mice), a positive control group (10 mice), and a treatment group (21 mice). Of the treated mice, ten received Compound 3 at a daily dosage of 25 mg/kg via IV injection through the tail veins for 5 days/week for 2 consecutive weeks (days 1-5 and 8-12) and eleven received the same compound at a daily dosage of 50 mg/kg via IV injection through the tail veins for 5 consecutive days (days 1-5). The positive control mice received VX-680 (a known anti-cancer drug) at a daily dosage of 50 mg/kg, also via IV injection through the tail veins for 5 days/week for 2 consecutive weeks (days 1-5 and 8-12).
as §1, with “Compound 4” for “Compound 3”, “of 5 mg/kg and eleven received the same compound at a daily dosage of 15” for “of 25”, “and 8-12).” for “and 8-12) and eleven received the same compound at a daily dosage of 50 mg/kg via IV injection through the tail veins for 5 consecutive days (days 1-5).”, “VX-680” for “VX-680 (a known anti-cancer drug)”

Each structure is given as a SMILES string. Several values for one entry are separate records, joined by “and”; a condition that tells them apart may be missing. Equal values may be shown once.

Take `CN(C)CCCOc1ccc2c(NCCc3ccc(NC(=O)Nc4ccccc4)cc3)ncnc2c1` [Compound 4, 1-(4-{2-[7-(3-Dimethylamino-propoxy)-quinazolin-4-ylamino]-ethyl}-phenyl)-3-phenyl-urea]: the IC50 at Aurora A is < 1000 nM and 51 to 450 nM; with HCT-116 cells, less than 100 nM. The “tumor size as % of that in the vehicle control group” value came to 67% in assay [1] (5 mg/kg daily IV, days 1-5 and 8-12, 22nd day post treatment); 37% in assay [1] (15 mg/kg daily IV, days 1-5 and 8-12, 22nd day post treatment). Further, in assay [1] (dosage of 15 mg/kg IV), the “tumor growth suppression (in words)” value is “suppressed tumor growth significantly and better than VX-680”.

Turning to `Cc1cc(Nc2cc(N3CCN(C)CC3)nc(Sc3ccc(NC(=O)C4CC4)cc3)n2)n[nH]1` [VX-680, reference compound], the “tumor size as % of that in the vehicle control animals” value in assay [1] (50 mg/kg daily IV, days 1-5 and 8-12, 22nd day post treatment) is 50%.

Turning to `COc1cc2ncnc(NCCc3ccc(NC(=O)Nc4ccccc4CN(C)C)cc3)c2cc1OC` [Compound 3, 1-{4-[2-(6,7-Dimethoxy-quinazolin-4-ylamino)-ethyl]-phenyl}-3-(2-dimethylaminomethyl-phenyl)-urea], the IC50 against Aurora A was < 1000 nM and 51 to 450 nM; with HCT-116 cells, less than 100 nM. The “tumor size as % of that in the vehicle control group” value in assay [1] (25 mg/kg daily IV, days 1-5 and 8-12, 22nd day post treatment) was 35%; in assay [1] (50 mg/kg daily IV, days 1-5, 22nd day post treatment), 36%. The “tumor growth suppression (in words)” value in assay [1] (dosages of 25 and 50 mg/kg IV) is “suppressed tumor growth significantly and better than VX-680”.

Take `COc1ccc2c(NCCc3ccc(NC(=O)Nc4ccccc4)cc3)c(C#N)cnc2c1` [Compound 212]: the concentration for half-maximal inhibition (IC50) was 51 to 450 nM and < 1000 nM against Aurora A; 101 to 850 nM with HCT-116 cells.

Regarding `O=C(Nc1ccccc1)Nc1ccc(CCNc2ncnc3oc(-c4ccccn4)nc23)cc1` [Compound 237], the IC50 at Aurora A is 1 to 50 nM and < 1000 nM; in the assay on HCT-116 cells it was 101 to 850 nM.

Consider `COc1cc2ncnc(NCCc3ncc(NC(=O)Nc4ccccc4)s3)c2cc1OC` [Compound 47], for which the IC50 was < 1000 nM and 1 to 50 nM on Aurora A; 101 to 850 nM in the assay with HCT-116 cells.

On to `COc1cc2ncnc(NCCc3ccc(NC(=O)Nc4cccc(C(F)(F)F)c4)cc3)c2cc1OC` [Compound 204], for which the IC50 on Aurora A was 1 to 50 nM and < 1000 nM; in the assay with HCT-116 cells, 101 to 850 nM.

In the case of `COc1ccc(-c2nc3c(NCCc4ccc(NC(=O)Nc5ccccc5)cc4)ncnc3o2)cc1` [Compound 206], the concentration for half-maximal inhibition (IC50) on Aurora A was < 1000 nM and 51 to 450 nM; with HCT-116 cells it was 101 to 850 nM.

Turning to `CN(C)c1ccc2c(NCCc3ccc(NC(=O)Nc4ccccc4)cc3)ncnc2c1` [Compound 233], the half-inhibitory concentration (IC50) at Aurora A was 51 to 450 nM and < 1000 nM; with HCT-116 cells, less than 100 nM.

For the molecule `O=C(Nc1ccc(CCNc2ncnc3oc(-c4ccncc4)nc23)cc1)Nc1cccc(F)c1` [Compound 250], the IC50 against Aurora A is 51 to 450 nM and < 1000 nM; in the assay with HCT-116 cells, 101 to 850 nM.

As to `COc1cc2ncnc(NCCc3cnc(NC(=O)Nc4cccc(Br)c4)s3)c2cc1OC` [Compound 252], the IC50 against Aurora A is 1 to 50 nM and < 1000 nM; in the assay with HCT-116 cells, 101 to 850 nM.

The IC50 is the midpoint of a concentration-inhibition curve.
